Measured values as given in patent US20070111261A1, “Antigens” (priority 2001, published 2007).
Entries after “also recorded” stand apart in the source; their conditions may differ.

Tests used:
[1] = tested on: mouse anti-HPV16 E7 mAb ED17; experiment: Dot immunoassay with anti-HPV16 E7 mAb ED17; type: binding; conditions: for Linear determinant recognized by mAb ED17 (epitope mapping): dot immunoassays using 6-mer peptides offset by one residue; for Binding to mAb ED17 in dot immunoassay: 15-mer peptide spotted on membrane, primary antibody 1:500
Procedure: The peptides corresponding to the three peptide sequences were synthetized and used as antigens in dot immunoassay experiments with MAb-ED17, a mouse monoclonal IgG, raised to the full length E7 oncoprotein. Peptide purity was controlled by analytical HPLC, and the molecular mass of purified peptides confirmed by fast atomic bombardment mass spectrometry. Peptides were dissolved in 0.9% NaCl, aliquoted and stored at −20° C.
Nitrocellulose membranes (Nytran […] pore size, Schleicher & Schüll) were pretreated for 1 min in 4% BSA (bovine serum albumin)/10 mM Tris-HCl, pH 7.5/150 mM NaCl, followed by 10 min activation with 2.5% glutaraldehyde. Peptides (5 Φg) were spotted on the activated membrane, left to dry for 1 hr at room temperature, and probed in phosphate-buffered saline (PBS) containing 4% BSA, 0.1% (v/v) Tween 20, and the primary antibody (1:500). Primary antibody was mouse anti-HPV16 E7 monoclonal IgG1 raised to amino acids 1-98 representing full length E7 (ED17, cat # sc-6981, Santa Cruz Biotechnology, Inc., Santa Cruz, Calif.). Following a 1 h incubation at room temperature, the membrane was washed three times for 10 mins with PBS containing 4% BSA, 0.1% Tween-20 and incubated with horseradish peroxidase-conjugated affinity-purified sheep anti-mouse IgG for 1 h (1:2500; Santa Cruz Biotechnology). Membrane was washed in PBS (4 times for 5 mins), and immunoblots were developed using the enhanced chemiluminescence detection assay (ECL Western blotting analysis system, Amersham Pharmacia Biotech, Milan, Italy).
The identification of the H2-E^k presented HPV 16 E7 epitope was further ananyzed by epitope mapping. Dot immunoassays by using 6-mer peptides offset by one amino acid residue confirmed that the anti-E7 mAb recognized the linear determinant HPV 16 E52-61 YNIVTFCCKC (SEQ ID NO:108) present in the 15-mer peptide RAHYNIVTFCCKCDS (SEQ ID NO:61), having the highest binding potential to the mouse MHC II molecule, and a low degree of similarity to host proteins.
Four peptides were analyzed for epitopic determinants in dot immunoassay tests: E725-39 YEQLNDSSEEEDEID (control; SEQ ID NO:76); E784-98 MGTLGIVCPICSQKP (SEQ ID NO:71); E72-16 HGDTPTLHEYMLDLQ (SEQ ID No:69); E749-63 RAHYNIVTFCCKCDS (SEQ ID NO:61); and E732-46 SEEEDEIDGPAGQAE (SEQ ID NO:39). […] As expected, high similarity peptide E732-46 SEEEDEIDGPAGQAE (SEQ ID NO:39) was not reactive (FIG. 1, peptide 5).
E749-63 RAHYNIVTFCCKCDS (SEQ ID NO:61) was further analyzed by epitope mapping.

[2] = tested on: HPV-transformed tumor cells; conditions: mice; cited from earlier work
MAb-ED17 = experiment: NMR spectra confirming epitope screening; type: binding, mouse
Excerpt: To confirm the epitope screening results, NMR spectra were obtained that confirmed the high affinity of MAb-ED17 towards the predicted epitopic peptide RAHYNIVTFCCKCDS (SEQ ID NO:61).

AHYNIVTFCCKC
Linear determinant recognized by mAb ED17 (epitope mapping) [1]: recognized

HGDTPTLHEYMLDLQ (listed as Human papillomavirus)
Binding to mAb ED17 in dot immunoassay [1]: not recognized; also recorded: No immune reaction

HPV E744-62 peptide: polypeptide comprising amino acids 44-62 of HPV E7 protein (QAEPDRAHYNIVTFCCKCD; UniProt P03129 44-62, looked up, fragment)
Prevention of outgrowth of HPV-transformed tumor cells [2]: effective for preventing outgrowth

MGTLGIVCPICSQKP (listed as Human papillomavirus)
Binding to mAb ED17 in dot immunoassay [1]: not recognized

RAHYNIVTFCCKCDS (listed as Human papillomavirus)
Affinity of MAb-ED17 towards peptide by NMR spectra (MAb-ED17): high affinity | Binding to mAb ED17 in dot immunoassay [1]: Significant binding; also recorded: significant signal

SEEEDEIDGPAGQAE (listed as Human papillomavirus)
Binding to mAb ED17 in dot immunoassay [1]: not reactive

YEQLNDSSEEEDEID (listed as Human papillomavirus)
Binding to mAb ED17 in dot immunoassay [1]: no binding

YNIVTFCCKC (listed as Human papillomavirus)
Linear determinant recognized by mAb ED17 (epitope mapping) [1]: recognized
